This assay has as its target T1, rat mGluR5 receptor (Rattus norvegicus, UniProt P31424).
T1 construct: expressed in transfected cells; host or cells: HEK-293
Description: [3H]-MPEP displacement binding assay, HEK-293 cell membranes expressing rat mGluR5. The note with it: for Ki: read-out: Median Ki; for IC50: no Ki given, read-out: IC50 (printed in the Median Ki column instead of a Ki). In a few lines:
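Membranes from HEK-293 cells expressing rat mGluR5 (12-25 μg protein), incubated 60 min at room temperature with 4 nM [3H]-MPEP in 50 mM Tris pH 7.5, then filtered. Nonspecific binding defined with 10 μM MPEP.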

Setting [1] is: [3H]-MPEP displacement, rat mGluR5.
Where [2] appears, read: [3H]-MPEP displacement, rat mGluR5 membranes.
The mark [3] stands for this setting: @ 10 μM compound, Biological Activity, Table 2A, read-out: PCT INHIB (%) @ 10 μM.
Setting [4] is: single point, @ 10 μM compound, Table 3A, read-out: PCT INHIB (%) @ 10 μM.
[5] abbreviates: 1 h, single point, @ 10 μm compound, Table 1A, read-out: PCT INHIB (%) @ 10 μm.

Like-named read-outs stand apart in the source and are kept apart here.

T1 sequence (P31424 21-1203): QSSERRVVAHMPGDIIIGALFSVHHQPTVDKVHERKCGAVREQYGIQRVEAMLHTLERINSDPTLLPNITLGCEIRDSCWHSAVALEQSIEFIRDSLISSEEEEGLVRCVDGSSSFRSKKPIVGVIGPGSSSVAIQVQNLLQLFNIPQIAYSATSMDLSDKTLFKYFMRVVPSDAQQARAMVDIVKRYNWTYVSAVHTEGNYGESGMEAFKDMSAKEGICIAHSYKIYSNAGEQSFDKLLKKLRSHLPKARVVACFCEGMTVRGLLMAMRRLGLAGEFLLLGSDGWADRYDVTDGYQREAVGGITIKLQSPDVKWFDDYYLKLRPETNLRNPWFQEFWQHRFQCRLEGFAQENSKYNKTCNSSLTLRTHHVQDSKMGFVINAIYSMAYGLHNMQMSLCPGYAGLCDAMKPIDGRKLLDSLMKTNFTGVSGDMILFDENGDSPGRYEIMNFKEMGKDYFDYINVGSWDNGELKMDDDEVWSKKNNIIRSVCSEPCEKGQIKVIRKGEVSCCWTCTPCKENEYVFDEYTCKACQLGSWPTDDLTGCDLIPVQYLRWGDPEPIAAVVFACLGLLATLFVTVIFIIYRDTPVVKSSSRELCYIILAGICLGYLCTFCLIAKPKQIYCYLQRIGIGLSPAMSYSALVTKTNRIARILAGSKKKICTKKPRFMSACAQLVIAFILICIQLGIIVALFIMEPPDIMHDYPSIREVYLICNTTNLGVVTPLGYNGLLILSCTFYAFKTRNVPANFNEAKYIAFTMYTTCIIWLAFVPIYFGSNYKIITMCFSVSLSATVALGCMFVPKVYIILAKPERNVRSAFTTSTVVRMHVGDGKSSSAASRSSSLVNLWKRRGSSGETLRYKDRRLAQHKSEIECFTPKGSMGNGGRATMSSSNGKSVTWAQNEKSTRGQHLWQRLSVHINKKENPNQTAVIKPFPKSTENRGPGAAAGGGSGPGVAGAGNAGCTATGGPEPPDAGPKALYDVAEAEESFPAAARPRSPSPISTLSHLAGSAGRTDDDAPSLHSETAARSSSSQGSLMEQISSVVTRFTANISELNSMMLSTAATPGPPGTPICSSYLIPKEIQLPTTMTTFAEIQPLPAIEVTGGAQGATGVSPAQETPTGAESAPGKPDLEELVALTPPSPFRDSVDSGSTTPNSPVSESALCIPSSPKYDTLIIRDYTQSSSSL

By Ki is commonly meant the dissociation constant of the complex between target and ligand, obtained from inhibition or displacement. For the molecule `COc1ccc(C(=O)N2CCN(S(=O)(=O)c3ccccc3Cl)CC2)cc1C#Cc1ccccn1` [Compound 278, 1-[(2-chlorophenyl)sulfonyl]-4-[4-methoxy-3-(pyridin-2-ylethynyl)benzoyl]piperazine], the Ki under setting [1] stood at 876 nM. In the case of `O=C(c1ccc(C(F)(F)F)c(C#Cc2ccccn2)c1)N1CCN(c2ncccc2Cl)CC1` [Compound 371, 1-(3-chloropyridin-2-yl)-4-{[3-(pyridin-2-ylethynyl)-4-(trifluoromethyl)phenyl]carbonyl}piperazine], the Ki under setting [2] was determined as 1000 nM.

In the case of `O=C(c1ccc(C(F)(F)F)c(C#Cc2ccccn2)c1)N1CCN(Cc2cccc(F)c2)CC1` [Compound 376, 1-(3-fluorobenzyl)-4-{[3-(pyridin-2-ylethynyl)-4-(trifluoromethyl)phenyl]carbonyl}piperazine], the Ki under setting [2] came out at 811 nM.

For `Cc1ccc(C(=O)N2CCN(c3ccccn3)CC2)cc1C#Cc1cccc(F)c1` [Compound 64, 1-{3-[(3-fluorophenyl)ethynyl]-4-methylbenzoyl}-4-pyridin-2-ylpiperazine], the Ki was found to be 131 nM. In the case of `COc1ccc(C(=O)N2CCN(c3ccc(C(F)(F)F)cc3)CC2)cc1C#Cc1ccccn1` [Compound 228, 1-[4-methoxy-3-(pyridin-2-ylethynyl)benzoyl]-4-[4-(trifluoromethyl)phenyl]piperazine], the Ki under setting [1] came to 674 nM. In the case of `O=C(c1cncc(C#Cc2ccccc2)c1)N1CCN(c2cnccn2)CC1` [Compound 137, 2-(4-{[5-(phenylethynyl)pyridin-3-yl]carbonyl}piperazin-1-yl)pyrazine], under setting [3], the inhibition at 10 µM was 32%. With `Cc1cccc(COc2cccc(C(=O)N3CCN(c4ccccn4)CC3)c2)c1` [Compound 150, 1-{3-[(3-methylbenzyl)oxy]benzoyl}-4-pyridin-2-ylpiperazine], the inhibition at 10 µM under setting [4] came to 0%. For `Cc1ccc(C(=O)N2CCN(c3cnccn3)CC2)cc1C#Cc1cccc(F)c1` [Compound 62, 2-(4-{3-[(3-fluorophenyl)ethynyl]-4-methylbenzoyl}piperazin-1-yl)pyrazine], the Ki worked out at 121 nM.

The IC50 is the concentration needed to halve the response being measured. For the molecule `COc1ccc(C(=O)N2CCN(c3ccc(F)cc3S(C)(=O)=O)CC2)cc1C#Cc1ccccn1` [Compound 240, 1-[4-fluoro-2-(methylsulfonyl)phenyl]-4-[4-methoxy-3-(pyridin-2-ylethynyl)benzoyl]piperazine], the IC50 under setting [1] is more than 10000 nM.

Turning to `O=C(c1ccc(OC(F)(F)F)c(C#Cc2ccccn2)c1)N1CCN(c2ncccc2Cl)CC1` [Compound 336, 1-(3-chloropyridin-2-yl)-4-[3-(pyridin-2-ylethynyl)-4-(trifluoromethoxy)benzoyl]piperazine], under setting [1], the Ki was 1070 nM. Take `COc1ccc(C(=O)N2CCN(c3ncccn3)CC2)cc1C#Cc1ccncc1` [Compound 355, 2-{4-[4-methoxy-3-(pyridin-4-ylethynyl)benzoyl]piperazin-1-yl}pyrimidine]: the inhibition constant Ki under setting [1] was determined as 1570 nM.

Regarding `COc1ccc(C(=O)N2CCN(c3ccc(C#N)cn3)CC2)cc1C#Cc1ccccc1` [Compound 113, 6-{4-[4-methoxy-3-(phenylethynyl)benzoyl]piperazin-1-yl}nicotinonitrile], under setting [3], the inhibition at 10 µM was 81%. In addition, for the setting “Biological Activity, Table 2A”, the Ki was 357 nM. Take `O=C(c1ccc(C(F)(F)F)c(C#Cc2ccccn2)c1)N1CCN(c2ncccn2)CC1` [Compound 370, 2-(4-{[3-(pyridin-2-ylethynyl)-4-(trifluoromethyl)phenyl]carbonyl}piperazin-1-yl)pyrimidine]: the Ki under setting [2] was determined as 164 nM. As to `Cc1cccc(N2CCN(C(=O)c3ccnc(C#Cc4ccccc4)c3)CC2)n1` [Compound 125, 1-(6-methylpyridin-2-yl)-4-[2-(phenylethynyl)isonicotinoyl]piperazine], under setting [3], the inhibition at 10 µM came to 30%. Consider “1-(3-chloropyridin-2-yl)-4-{4-methoxy-3-[(3-nitrophenyl)ethynyl]benzoyl}piperazine [Compound 345]”, for which the Ki under setting [1] worked out at 3210 nM. As to `COc1ccc(C(=O)N2CCN(c3ccccn3)CC2)cc1C#Cc1cccc(N)c1` [Compound 34, 3-({2-methoxy-5-[(4-pyridin-2-ylpiperazin-1-yl)carbonyl]phenyl}ethynyl)aniline], the Ki was 299 nM. For the same molecule, under setting [5], the inhibition at 10 µM amounted to 62%.

For `Cc1ccc(N2CCN(C(=O)c3ccc(C(F)(F)F)c(C#Cc4ccccn4)c3)CC2)nc1` [Compound 372, 1-(5-methylpyridin-2-yl)-4-{[3-(pyridin-2-ylethynyl)-4-(trifluoromethyl)phenyl]carbonyl}piperazine], the Ki under setting [2] turned out to be 292 nM.

Regarding `O=C(c1cccc(C#Cc2ccccn2)c1)N1CCN(c2cncc(Cl)n2)CC1` [Compound 104, 2-chloro-6-{4-[3-(pyridin-2-ylethynyl)benzoyl]piperazin-1-yl}pyrazine], the inhibition at 10 µM under setting [3] came out at 71%. The Ki (Biological Activity, Table 2A) came to 1460 nM. “2-{4-[4-methoxy-3-(pyridin-2-ylethynyl)benzoyl]piperazin-1-yl}-1,3-benzothiazole [Compound 256]”: the Ki under setting [1] came out at 43 nM. Still for that read-out and setting: the same measure for `COc1ccc(C(=O)N2CCN(c3cc4ccc(Br)cc4cn3)CC2)cc1C#Cc1ccccn1` [Compound 261, 7-bromo-3-{4-[4-methoxy-3-(pyridin-2-ylethynyl)benzoyl]piperazin-1-yl}isoquinoline]: 1380 nM. On to `COc1ccc(C(=O)N2CCN(c3ccccn3)CC2)cc1C#CC1=CCCCC1` [Compound 15, 1-[3-(cyclohex-1-en-1-ylethynyl)-4-methoxybenzoyl]-4-pyridin-2-ylpiperazine], for which the Ki is 236 nM. Further, the inhibition at 10 µM under setting [5] was 76%. In the case of `O=C(c1cncc(C#Cc2ccccc2)c1)N1CCN(c2ccccn2)CC1` [Compound 87, 1-{[5-(phenylethynyl)pyridin-3-yl]carbonyl}-4-pyridin-2-ylpiperazine], the inhibition at 10 µM under setting [3] was 56%. Moreover, the Ki (Biological Activity, Table 2A) is 3310 nM. In the case of `COc1ccc(C(=O)N2CCN(c3ccccn3)CC2)cc1C#Cc1cccnc1` [Compound 35, 1-[4-methoxy-3-(pyridin-3-ylethynyl)benzoyl]-4-pyridin-2-ylpiperazine], the Ki worked out at 898 nM. The inhibition at 10 µM under setting [5] is 67%.

As to `COc1nsnc1N1CCN(C(=O)c2cccc(C#Cc3ccccn3)c2)CC1` [Compound 102, 1-(4-methoxy-1,2,5-thiadiazol-3-yl)-4-[3-(pyridin-2-ylethynyl)benzoyl]piperazine], the inhibition at 10 µM under setting [3] is 92%. Moreover, the Ki (Biological Activity, Table 2A) came out at 80 nM. In the same order, the values of `O=C(c1cccc(C#Cc2ccccn2)c1)N1CCN(c2ncc(O)cn2)CC1` [Compound 99, 2-{4-[3-(pyridin-2-ylethynyl)benzoyl]piperazin-1-yl}pyrimidin-5-ol] are 64% and 1450 nM.

`N#Cc1cccc(COc2cccc(C(=O)N3CCN(c4ccccn4)CC3)c2)c1` [Compound 156, 3-({3-[(4-pyridin-2-ylpiperazin-1-yl)carbonyl]phenoxy}methyl)benzonitrile]: the inhibition at 10 µM under setting [4] worked out at 0%. For `O=C(c1cccc(COc2cccc(Cl)c2)c1)N1CCN(c2ccccn2)CC1` [Compound 168, 1-{3-[(3-chlorophenoxy)methyl]benzoyl}-4-pyridin-2-ylpiperazine], the Ki ([3H]-MPEP 4 nM, Table 4A) is 813 nM.

With `Cc1cccc(N2CCN(C(=O)c3cccc(C#Cc4ccccc4)c3)CC2)n1` [Compound 110, 1-(6-methylpyridin-2-yl)-4-[3-(phenylethynyl)benzoyl]piperazine], the inhibition at 10 µM under setting [3] stood at 68%. Besides, under “Biological Activity, Table 2A”, the inhibition constant (Ki) came out at 3410 nM. Take `COc1cccc(C#Cc2cc(C(=O)N3CCN(c4cnccn4)CC3)ccc2OC)c1` [Compound 52, 2-(4-{4-methoxy-3-[(3-methoxyphenyl)ethynyl]benzoyl}piperazin-1-yl)pyrazine]: the Ki was 60.1 nM. Moreover, the inhibition at 10 µM under setting [5] is 81%. For the molecule `COc1ccc(C(=O)N2CCN(c3ncccn3)CC2)cc1C#Cc1cccc([N+](=O)[O-])c1` [Compound 357, 2-(4-{4-methoxy-3-[(3-nitrophenyl)ethynyl]benzoyl}piperazin-1-yl)pyrimidine], the Ki under setting [1] is 239 nM. On to `N#Cc1nccnc1N1CCN(C(=O)c2ccc(C(F)(F)F)c(C#Cc3ccccn3)c2)CC1` [Compound 366, 3-(4-{[3-(pyridin-2-ylethynyl)-4-(trifluoromethyl)phenyl]carbonyl}piperazin-1-yl) pyrazine-2-carbonitrile], for which, under setting [2], the Ki was 459 nM. As for `COc1ccc(C(=O)N2CCCN(c3ccc(C(F)(F)F)cn3)CC2)cc1C#Cc1ccccn1` [Compound 210, 1-[4-methoxy-3-(pyridin-2-ylethynyl)benzoyl]-4-[5-(trifluoromethyl)pyridin-2-yl]-1,4-diazepane], the Ki under setting [1] is 851 nM. Regarding `COc1ccc(C(=O)N2CCN(c3ncccn3)CC2)cc1C#Cc1ccc(OCc2ccccc2)cc1` [Compound 358, 2-[4-(3-{[4-(benzyloxy)phenyl]ethynyl}-4-methoxybenzoyl)piperazin-1-yl]pyrimidine], the IC50 under setting [1] was more than 10000 nM. On to `COc1ccc(C(=O)N2CCN(c3cc(Cl)nc(SC)n3)CC2)cc1C#Cc1ccccn1` [Compound 294, 4-chloro-6-{4-[4-methoxy-3-(pyridin-2-ylethynyl)benzoyl]piperazin-1-yl}-2-(methylthio)pyrimidine], for which the Ki under setting [1] turned out to be 99 nM.

Take `O=S(=O)(c1cccc(C#Cc2cccc(O)c2)c1)N1CCN(c2ccccn2)CC1` [Compound 172, 3-({3-[(4-pyridin-2-ylpiperazin-1-yl)sulfonyl]phenyl}ethynyl)phenol]: under “single point, @ 10 μM compound, Table 5, read-out: PCT INHIB (%) @ 10 μM”, the inhibition at 10 µM is 0%.

Values taken from US20090325964A1, “Piperazine Metabotropic Glutamate Receptor 5 (MGLUR5) Negative Allosteric Modulators For Anxiety/Depression” (Wyeth, priority 2008, published 2009).
